# Experimental data published in patent publication US20060030616A1, “Anhydride modified cantharidin analogues useful in the treatment of cancer” (priority 1998, published 2006).
# Like-named read-outs stand apart in the source and are kept apart here.
# Assays:
# [1] = target: protein phosphatase 2A (PP2A) (Gallus gallus, UniProt P48463); assay: Inhibition of protein phosphatase 2A, [32P]-phosphorylase substrate; format: biochemical, chicken; design: inhibition: dose or concentration left out as unconfirmed
# Procedure: (§1) All synthesised compounds were tested for their ability to inhibit protein phosphatases 1 and 2A. Initial investigations were carried out at 100 mM. Promising analogues were then assayed in triplicate for estimation of IC50 values.
# (§2) Protein phosphatase 1 and 2A were partially purified from chicken skeletal muscle essentially as described by Cohen Protein phosphatase activity was measured at 37° C. in 50 mM Tris-HCl buffer (pH 7.4), 0.1 mM EDTA, 5 mM caffeine, 0.1% 2-mercaptoethanol and 1 mg/ml bovine serum albumin using […] [^32P]-phosphorylase as substrate. The total assay volume was […]. The assay conditions were restricted to 20% dephosphorylation to ensure linearity and inhibition of protein phosphatase activity was determined by including cantharidin or its analogues at the required concentrations in the reaction buffer. Reactions were terminated by the addition of 0.1 ml ice cold 20% trichloroacetic acid. Precipitated protein was pelleted by centrifugation and the radioactivity in the supernatant measured by liquid scintillation counting. Data is expressed as the percentage inhibition with respect to a control (absence of a competing compound) incubation.
# (§3) Anhydrides and simple analogues were synthesised according to literature procedures (Eggelte et. al; 1973), and then subjected to a PP1 and PP2A bio-assay (see biochemistry) to determine their ability to inhibit these enzymes. The results of initial screening at 100 mMs are shown in Table 4, along with IC50 values in some instances.
# [2] = Stability under assay conditions; format: physicochemical; settings: PP assay conditions
# [3] = system: protein phosphatase 2A (PP2A); settings: cited from earlier work; for IC50: background art
# [4] = target: protein phosphatase 1 (PP1); settings: background art; cited from earlier work
# L1210 cells = assay: MTT cytotoxicity assay, 72 h; format: cell-based, murine; settings: L1210, p53 wt; read-out: IC50 (mean ± SE) after 72 h continuous exposure
# Procedure: (§4) Cells in a subconfluent phase are transferred to 96-well microtitre plates. L1210 cells are plated at a density of 1000 cells/well in 100 μl medium, while all other cell lines are plated at a density of 2000-25000 cells/well. The cells are left for 24 h prior to treatment to ensure exponential growth has been achieved, 24 h after plating (day 0), 100 μl of phosphatase inhibitor is added to each well, control wells received 100 μl of medium only. Drug exposure time is 72 h (day 3). The effect of phosphatase inhibition is tested in triplicate over a concentration range of […]−1×10^−8 M. Growth inhibitory effects are evaluated using the MTT assay and absorbance read at […]. The IC50 is the drug concentration at which cell growth is 50% inhibited based on the difference of optical density on day 0 and day 3 of drug exposure. Cytotoxicity is evaluated using a spectrophotometric assay which determines the percentage of cell growth following exposure of the cells to various concentrations of the phosphatase inhibitors for a period of 72 hours. The subsequent dose response curve is used to calculate IC50 values (the drug concentration at which cell growth is 50% inhibited).
# (§5) Anti-cancer screening of the protein phosphatase inhibitors is assessed using the MTT assay. This assay determines cell viability by the ability of mitochondrial dehydrogenase to produce formazan crystals from 3-(4,5-dimethylthiazol-2-yl)-2,5-diphenyltetrazolium bromide. The viable cell number/well is directly proportional to the production of formazan, which following solubilization, can be measured spectrophotometrically (540 nm). This technique is also used by the National Cancer Institute to screen for new anticancer agents.
# (§6) As described herein a number of cantharidin analogues have been synthesised and tested for their anticancer activity in nine cancer cell lines using the MTT assay after 72 h exposure. These new analogues are shown in FIG. 2 and have been designated MK-1 through to MK-9.
# 143B cells = assay: MTT cytotoxicity assay, 72 h; format: cell-based, human; settings: p53 mt, read-out: IC50 (mean ± SE) after 72 h continuous exposure
# Procedure: as §4, §5, §6
# A2780 cells = assay: MTT cytotoxicity assay, 72 h; format: cell-based, human; settings: A2780, p53 wt; read-out: IC50 (mean ± SE) after 72 h continuous exposure
# Procedure: as §4, §5, §6
# ADDP cells = assay: MTT cytotoxicity assay, 72 h; format: cell-based, human; settings: p53 mt, read-out: IC50 (mean ± SE) after 72 h continuous exposure
# Procedure: as §4, §5, §6
# HCT116 cells = assay: MTT cytotoxicity assay, 72 h; format: cell-based, human; settings: HCT116, p53 wt; read-out: IC50 (mean ± SE) after 72 h continuous exposure
# Procedure: as §4, §5, §6
# HL60 cells = assay: MTT cytotoxicity assay, 72 h; format: cell-based, human; settings: HL60, p53 nul; read-out: IC50 (mean ± SE) after 72 h continuous exposure
# Procedure: as §4, §5, §6
# HT29 cells = assay: MTT cytotoxicity assay, 72 h; format: cell-based, human; settings: HT29, p53 mt; read-out: IC50 (mean ± SE) after 72 h continuous exposure
# Procedure: as §4, §5, §6
# SW480 cells = assay: MTT cytotoxicity assay, 72 h; format: cell-based, human; settings: SW480, p53 mt; read-out: IC50 (mean ± SE) after 72 h continuous exposure
# Procedure: as §4, §5, §6
# WiDr cells = assay: MTT cytotoxicity assay, 72 h; format: cell-based, human; settings: p53 mt, read-out: IC50 (mean ± SE) after 72 h continuous exposure
# Procedure: as §4, §5, §6
# nine cancer cell lines = assay: MTT cytotoxicity assay, 72 h, ranges over cell line panel; format: cell-based
# Procedure: as §4, §5, §6
# [5] = target: protein phosphatase 1 (PP1); assay: Inhibition of protein phosphatase 1, [32P]-phosphorylase substrate; format: biochemical, chicken; settings: for Inhibition of PP1 (%): initial screening at 100 mM (so in the source)
# Procedure: as §1, §2, §3
# [6] = nine cell lines, read-out: IC50 range across all cell lines tested
# protein phosphatase 2A (PP2A) (Gallus gallus, UniProt P48463), sequence (P48463 whole entry): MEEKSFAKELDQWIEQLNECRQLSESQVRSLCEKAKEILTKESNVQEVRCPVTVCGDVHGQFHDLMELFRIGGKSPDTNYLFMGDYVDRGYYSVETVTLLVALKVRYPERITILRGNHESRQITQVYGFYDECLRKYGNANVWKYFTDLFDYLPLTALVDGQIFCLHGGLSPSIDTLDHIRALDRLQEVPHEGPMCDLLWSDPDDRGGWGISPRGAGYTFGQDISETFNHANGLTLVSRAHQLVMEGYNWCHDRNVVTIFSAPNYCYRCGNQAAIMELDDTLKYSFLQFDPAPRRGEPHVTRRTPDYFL
compound,measurement,setting,value
"O=C1OC(=O)[C@H]2[C@@H]1[C@H]1CC[C@H]2O1 [Compound 2, norcantharidin]",Inhibition of PP2A (%),[1]; initial screening at 100 mM (so in the source),95%
same,Stability under assay conditions,[2],rapid conversion to the dicarboxylic acid
same,Previously reported PP2A selectivity,[3]; PP2A over PP1,~10 fold
C=C1[C@@H](O)[C@@H]2O[C@]3(CC[C@H](/C=C/[C@@H](C)[C@@H]4CC(C)=C[C@@]5(O[C@H](C[C@@](C)(O)C(=O)O)CC[C@H]5O)O4)O3)CC[C@H]2O[C@@H]1[C@@H](O)C[C@H](C)[C@H]1O[C@@]2(CCCCO2)CC[C@H]1C [Okadaic acid],IC50,[4],0.06 µM
same,IC50,[3],0.001 µM
O=C(O)C1C2C=CC(O2)C1C(=O)Oc1ccccc1 (stereo not shown) [MK-3],IC50,L1210 cells,647 ± 132 µM
same,IC50,143B cells,665 ± 225 µM
same,IC50,A2780 cells,317 ± 17 µM
same,IC50,ADDP cells,> 1000 µM
same,IC50,HCT116 cells,> 1000 µM
same,IC50,HL60 cells,247 ± 55 µM
same,IC50,HT29 cells,530 ± 112 µM
same,IC50,SW480 cells,444 ± 27 µM
same,IC50,WiDr cells,620 ± 31 µM
same,IC50,nine cancer cell lines; [6],≥ 247 µM
COC(=O)C1C2C=CC(O2)C1C(=O)OC (stereo not shown) [Compound 3],IC50,[5],50 µM
same,Selectivity PP2A/PP1,[5],>200
same,Inhibition of PP1 (%),[5],46%
same,inhibition,[1],6%
"O=C1OC(=O)C2C3C=CC(O3)C12 (stereo not shown) [Compound 2, norcantharidin, reference compound]",inhibition,[1],95%
O=C1OC(O)C2C3CCC(O3)C12 (stereo not shown) [Compound 6],Inhibition of PP1 (%),[5],9%
same,inhibition,[1],11%
CO[C@@H]1OC(=O)C2C3CCC(O3)C21 (stereo partly shown) [Compound 5],Inhibition of PP1 (%),[5],15%
same,inhibition,[1],8%
O=C1OCC2C3CCC(O3)C12 (stereo not shown) [Compound 7],inhibition,[1],21%
CO[C@H]1OC(=O)C2C3CCC(O3)C21 (stereo partly shown) [Compound 4],Inhibition of PP1 (%),[5],13%
same,inhibition,[1],11%
O=C1OC(=O)C2C3CCC(O3)C12 (stereo not shown) [Compound 1],IC50,[5],2.4 µM
same,Selectivity PP2A/PP1,[5],0.875
same,Inhibition of PP1 (%),[5],90%
same,inhibition,[1],97%
O=C1SC(=O)[C@H]2[C@@H]1[C@@H]1CC[C@H]2O1 [endothal thioanhydride],Potency relative to cantharidin,[3],three fold more potent than cantharidin
calyculin,IC50,[4],0.0005 to 0.001 µM
same,IC50,[3],0.002 µM
COC(=O)C1C2C=CC(S2)C1C(=O)OC (stereo not shown),Inhibition of PP1 (%),[5],3%
COC1OC(=O)C2C3CCC(O3)C12 (stereo not shown) [MK-5],IC50,L1210 cells,> 1000 µM
same,IC50,143B cells,> 1000 µM
same,IC50,A2780 cells,567 ± 109 µM
same,IC50,ADDP cells,260 ± 40 µM
same,IC50,HCT116 cells,143 ± 23 µM
same,IC50,HL60 cells,323 ± 13 µM
same,IC50,HT29 cells,28 ± 1 µM
same,IC50,SW480 cells,247 ± 14 µM
same,IC50,WiDr cells,31 ± 10 µM
same,IC50,"nine cancer cell lines; colon lines, read-out: IC50 range in human colon cancer cell lines",28 to 247 µM
same,IC50,"nine cancer cell lines; leukaemia lines, read-out: IC50 range in leukaemia cells",≥ 323 µM
same,IC50,"nine cancer cell lines; ovarian lines, read-out: IC50 range in ovarian cells",260 to 567 µM
O=C1NC(=O)C2C3CCC(S3)C12 (stereo not shown),Inhibition of PP1 (%),[5],15%
O=C1NC(=O)C2C3C=CC(S3)C12 (stereo not shown) [MK-1],IC50,L1210 cells,> 1000 µM
same,IC50,143B cells,> 1000 µM
same,IC50,A2780 cells,> 1000 µM
same,IC50,ADDP cells,> 1000 µM
same,IC50,HCT116 cells,> 1000 µM
same,IC50,HL60 cells,> 1000 µM
same,IC50,HT29 cells,> 1000 µM
same,IC50,SW480 cells,> 1000 µM
same,IC50,WiDr cells,> 1000 µM
same,IC50,nine cancer cell lines; [6],> 1000 µM
